From patent US6485921B1, “UBCLP and uses thereof” (Millennium Pharmaceuticals, Inc., priority 1998, dated 2002)

Tested on: UBCLP expression in LNCaP cells
Test: Expression of UBCLP in LNCaP prostate cancer cells treated with casodex or R1881
Format: cell-based, human
Settings: 100 nM casodex versus 1 nM R1881, RPMI-1640 with 5% charcoal stripped serum, mRNA expression analysis
Experimental: In order to examine the effect of casodex, an anti-androgen, on the expression of UBCLP, LNCaP cells (androgen-responsive prostate cancer cells) were grown to 70% confluence in RPMI-1640 supplemented with 10% FBS. The cultures were then pretreated for 24 hours in dye-free RPMI-1640 containing 5% charcoal stripped serum. The cultures were then treated with either 1 nM R1881 or 100 nM casodex in RPMI-1640 containing 5% charcoal stripped serum prior to harvesting an extraction of total mRNA for expression analysis.
In CWR22 cells (a human primary prostate xenograft cell line; Wainstein et al. (1994) Cancer Res. 54:6059-52) implanted in male nude mice, UBCLP expression levels decrease about 5-fold in 21 days after castration. In CWR22R cells (Chen et al. (1998) Cancer Res 58:2777-83), an androgen-independent variant of CWR22 cells, UBCLP appears to be constitutively expressed with respect to androgen.

## CC(O)(CS(=O)(=O)c1ccc(F)cc1)C(=O)Nc1ccc(C#N)c(C(F)(F)F)c1 (stereo not shown) [Casodex]
  drop in UBCLP expression: 3 fold
